The text below walks through data of US4003945A, “Novel cyclopropanecarboxylates” (Sumitomo Chemical Company, Limited, priority 1973, dated 1977).

Converted amounts (≈) assume the structure as drawn.

The subject of one data set is housefly adults. The data set can be described thus: Oil spray, Campbel's turn table, lethal concentration (Test Example 2). In kind it is in vivo. Conditions: Musca domestica, 24 h. As for the experimental part:
A group of about 100 housefly adults was exposed to descending spray for 10 minutes, thereafter was transferred to an observation cage, was fed, and was allowed to stand at room temperature.
After a day, the dead and alive were counted to calculate the lethal ratio.
For `C#CC(OC(=O)C1C(C=C(C)C)C1(C)C)C(C)=CCCC=C` (stereo not shown) [Compound 128, 1-Ethynyl-2-methyl-2,6-heptadien-1-yl-chrysanthemate], the median lethal concentration (LC50) – broadly, the concentration lethal to half of the exposed cells or organisms – turned out to be 900 µg/mL (≈ 3000 µM).

In turn, `C#CC(OC(=O)C1C(C=C(Cl)Cl)C1(C)C)C(C)=CCCC=C` (stereo not shown) [Compound 129, 1-Ethynyl-2-methyl-2,6-heptadien-1-yl 2',2'-dimethyl-3'-(2",2"-dichlorovinyl)-cyclopropane-carboxylate] came in with a 50% lethal concentration (LC50) of 230 µg/mL (≈ 674 µM).

In turn, `C#CC(OC(=O)C1C(C=C(C)C)C1(C)C)C(C)=CCC=C` (stereo not shown) [Compound 29, 1-Ethynyl-2-methyl-2,5-hexadienyl chrysanthemate] gave an LC50 of 900 µg/mL (≈ 3140 µM). Same read-out and setting: under `C#CC(OC(=O)C1C(C=C(Cl)Cl)C1(C)C)C(C)=CC` (stereo not shown) [Compound 130, 1-Ethynyl-2-methyl-2-butenyl 2',2'-dimethyl-3'-2',2"-dichlorovinyl-cyclopropanecarboxylate] stands 1500 µg/mL (≈ 4980 µM); under `C#CC(OC(=O)C1C(C=C(C)C)C1(C)C)C(=CCCC)CC` (stereo not shown) [Compound 5, 1-Ethynyl-2-ethyl-2-hexenyl chrysanthemate], 2400 µg/mL (≈ 7930 µM). Same read-out and setting: the result for `C#CC(OC(=O)C1C(C=C(Cl)Cl)C1(C)C)C(C)=CCC=C` (stereo not shown) [Compound 127, 1-Ethynyl-2-methyl-2,5-hexadien-1-yl 2',2'-dimethyl-3'-(2",2"-di-chlorovinyl)-cyclopropane-carboxylate] reads 250 µg/mL (≈ 764 µM); that for `C#CC(OC(=O)C1C(C=C(Cl)Cl)C1(C)C)/C(C)=C/CC` (stereo not shown) [Compound 126, 1-Ethynyl-2-methyl-2-pentenyl 2',2'-dimethyl-3'-(2",2"-dichlorovinyl)-yclopropanecarboxylate], 300 µg/mL (≈ 952 µM); that for `C=CCC1=C(C)C(OC(=O)C2C(C=C(C)C)C2(C)C)CC1=O` (stereo not shown) [Allethrin, reference compound], 3500 µg/mL (≈ 11600 µM).

Still in this data set, the particulars now being: Musca domestica, 24 h; Table 3a; oil spray 5 ml, 10 minutes exposure, counted after a day; read-out: LC50.
Regarding `C#CC(C#CCOc1ccccc1)OC(=O)C1C(C=C(Cl)Cl)C1(C)C` (stereo not shown) [Compound 144, 1-Ethynyl-4-phenoxy-2-butyn-1-yl 2',2'-dimethyl-3'-(2",2"-dichlorovinyl)-cyclopropanecarboxylate], the median lethal concentration (LC50) came out at 290 µg/mL (≈ 769 µM). `C#CC(OC(=O)C1C(C=C(C)C)C1(C)C)C(=CC1=CCCC1)CC` (stereo not shown) [Compound 109, 1-Ethynyl-2-ethyl-3-(1'-cyclopentenyl)allyl chrysanthemate]: the LC50 amounted to 340 µg/mL (≈ 1040 µM). As for `C#CC(C#CCC=C)OC(=O)C1C(C=C(Cl)Cl)C1(C)C` (stereo not shown) [Compound 143, 1-Ethynyl-4-vinyl-2-butyn-1-yl 2',2'-dimethyl-340-(2",2"-dichloro-vinyl)-cyclopropanecarboxylate], the LC50 is 820 µg/mL (≈ 2630 µM). On the same count and under the same terms, the result for `C#CC(C#CCOC)OC(=O)C1C(C=C(C)C)C1(C)C` (stereo not shown) [Compound 68, 1-Ethynyl-4-methoxy-2-butyn-1-yl chrysanthemate] reads 4000 µg/mL (≈ 14600 µM); that for `C#CC(C=CC1C=CCC1)OC(=O)C1C(C=C(C)C)C1(C)C` (stereo not shown) [Compound 102, 1-Ethynyl-3-(2'-cyclopentenyl)-allyl chrysanthemate], 600 µg/mL (≈ 2010 µM); that for `C#CC(C#CCOC)OC(=O)C1C(C=C(Cl)Cl)C1(C)C` (stereo not shown) [Compound 142, 1-Ethynyl-4-methoxy-2-butyn-1-yl 2',2'-dimethyl-3'-(2",2"- dichlorovinyl)-cyclopropane-carboxylate], 1200 µg/mL (≈ 3810 µM). With `C#CC(OC(=O)C1C(C=C2CCCC2)C1(C)C)C(C)=CCC1=CCCC1` (stereo not shown) [Compound 111, 1-Ethynyl-2-methyl-4-(1'-cyclopentenyl)-2-butenyl 2",2"- dimethyl-3"-cyclopentylidene-methylcyclopropanecarboxylate], the 50% lethal concentration (LC50) came to 410 µg/mL (≈ 1160 µM). Same read-out and setting: under `C#CC(C#CCC=C)OC(=O)C1C(C=C(C)C)C1(C)C` (stereo not shown) [Compound 71, 1-Ethynylhexa-2-yn-5-en-1-yl chrysanthemate] stands 2900 µg/mL (≈ 10700 µM); under `C#CC(C#CCOc1ccccc1)OC(=O)C1C(C=C(C)C)C1(C)C` (stereo not shown) [Compound 79, 1-Ethynyl-4-phenoxy-2-butyn-1-yl chrysanthemate], 830 µg/mL (≈ 2470 µM).

The test system of the next data set is 3rd or 4th instar larvae of tobacco cut worm. The data set can be described thus: Diluted emulsion sprayed by settling tower on larvae (Example X). Conditions: emulsion diluted to 50 times, 1 ml. It counts as in vivo. As for the experimental part:
Ten of the 3rd or 4th instar larvae of tobacco cut worm were put into a petri dish of 17 cm in diameter.
One ml of the present compound (4, 11, 28, 92, 94, 95, 109, 111) in form of an emulsion obtained in Example X, which were diluted to 50 times with water, were sprayed by means of a settling tower. The said larvae were removed into another petri dish with the leaves of the chinese cabbage leaves. Observation was made after 48 hrs. As a result, more than 90% of the larvae were dead in each case.
For `C#CC(C#CCC=C)OC(=O)C1C(C=C2CCCC2)C1(C)C` (stereo not shown) [Compound 94, 1-Ethynylhexa-2-yn-5-en-1-yl 2',2'-dimethyl-3-'-cyclopentylidene-methylcyclopropanecarboxylate], the “larvae dead after 48 hrs” value is recorded as “more than 90%”.

`C#CC(OC(=O)C1C(C=C(C)C)C1(C)C)C(=CC1=CCCC1)CC` (stereo not shown) [Compound 109, 1-Ethynyl-2-ethyl-3-(1'-cyclopentenyl)allyl chrysanthemate]: the “larvae dead after 48 hrs” value is on record as “more than 90%”. Still for that read-out and setting: under `C#CC(C#CCC=C)OC(=O)C1C(C=CC=C)C1(C)C` (stereo not shown) [Compound 92, 1-Ethynylhexa-2-yn-5-en-1-yl 2',2'-dimethyl-3'-(1",3"- butadienyl)cyclopropane-carboxylate] stands “more than 90%”; under `C#CC(OC(=O)C1C(C=C2CCCC2)C1(C)C)C(C)=CCC1=CCCC1` (stereo not shown) [Compound 111, 1-Ethynyl-2-methyl-4-(1'-cyclopentenyl)-2-butenyl 2",2"- dimethyl-3"-cyclopentylidene-methylcyclopropanecarboxylate], “more than 90%”. In the case of `C#CC(OC(=O)C1C(C=C2CCCC2)C1(C)C)C(C)=CCC` (stereo not shown) [Compound 28, 1-Ethynyl-2-methyl-2-pentenyl 2',2'-dimethyl-3'-cyclopentylidene-methylcyclopropanecarboxylate], the “larvae dead after 48 hrs” value is listed as “more than 90%”.

As for `C#CC(C#CCC=C)OC(=O)C1C(C=C(Cl)Cl)C1(C)C` (stereo not shown) [Compound 95, 1-Ethynylhexa-2-yn-5-en-1-yl 2',2'-dimethyl-3'-(2",2"- dichlorovinyl)cyclopropane-carboxylate], the “larvae dead after 48 hrs” value was “more than 90%”. The same measure, in the same setting: under `C#CC(OC(=O)C1C(C)(C)C1(C)C)C(C)=CC` (stereo not shown) [Compound 11, 1-Ethynyl-2-methyl-2-butenyl 2',2',3',3'-tetramethylcyclo-propanecarboxylate] stands “more than 90%”.

A further data set has as its system adult planthoppers. The data set can be described thus: Residual effect on sprayed rice seedlings (Example XV). In kind it is in vivo. Conditions: concentrate diluted to 400 times; observed 24 hours after release. On the procedure:
About 20 rice seedlings, cultivated for 20 days after sowing in a flower pot of 8.5 cm in diameter, were sprayed with each of the emulsifiable concentrates obtained as in Example X which were diluted to 400 times with water. After air-drying, each pot was covered with a wire cage, into which 20 adult planthoppers were released as time elapsed. And the observation was made after 24 hours.
Take `C#CC(OC(=O)C1C(C)(C)C1(C)C)C(C)=Cc1ccccc1` (stereo not drawn) [Compound 39, α-Ethynyl-β-methylcinnamyl 2,2,3,3-tetramethyl-cyclopropanecarboxylate]: the “Mortality (%) After 1 day” value is on record as 100% and the “Mortality (%) After 6 days” value came out at 85.0%.

In the case of `C#CC(OC(=O)C1C(C=C2CCCC2)C1(C)C)C(C)=Cc1ccccc1` (stereo not shown) [Compound 40], the “Mortality (%) After 1 day” value is reported as 100% and the “Mortality (%) After 6 days” value is 66.7%. For the compound `CNC(=O)Oc1ccc(C)c(C)c1` [Meobal, 3,4-Dimethylphenyl-N-methylcarbamate, reference compound], the “Mortality (%) After 1 day” value was 100% and the “Mortality (%) After 6 days” value is 40.0%.

For a further data set, the system named is leafhoppers of resistant and susceptible strains. The data set can be described thus: Emulsion sprayed on rice seedlings, leafhoppers released (Example XVI). In kind it is in vivo, leafhopper. The settings on record: emulsion diluted to 50 times. On the procedure: About 20 rice seedlings, cultivated for 20 days after sowing in a flower pot of 8.5 cm in diameter were sprayed with each of the present compounds (31, 32, 35, 39, 40, 42, 45, 48, 55, 59, 60, 63, 131 - 134, 139) in the form of an emulsion which were diluted to 50 times. Each pot was put into the beaker and covered with gauze, into which leafhoppers of resistant and susceptible strains, respectively, were released in each beaker. And the number of knocked down insects after 1 hour and the mortality after 24 hours were counted. As a result, the knock down per centage was more than 50% and the mortality was more than 80% in each case.
In the case of `C#CC(OC(=O)C1C(C=C(Cl)Cl)C1(C)C)C(C)=Cc1ccccc1` (stereo not drawn) [Compound 59, α-Ethynyl-β-methylcinnamyl 2,2-dimethyl-3-(2',2'-dichloro-vinyl)cyclopropanecarboxylate], the “knock down percentage after 1 hour” value was “more than 50%” and the “mortality after 24 hours” value is “more than 80%”.

Turning to `C#CC(C=Cc1ccco1)OC(=O)C1C(C=C(C)C)C1(C)C` (stereo not drawn) [Compound 60, α-Ethynyl-γ-(2-furyl)-allyl chrysanthemate], the “knock down percentage after 1 hour” value is reported as “more than 50%” and the “mortality after 24 hours” value is on record as “more than 80%”.

For the compound `C#CC(OC(=O)C1C(C=C(C)C=C)C1(C)C)C(C)=Cc1ccc(C#N)cc1` (stereo not drawn) [Compound 45, α-Ethynyl-β-methyl-4-cyano-cinnamyl 2',2'-dimethyl-3'-(2"-methyl-1",3"-butadienyl)-cyclopropanecarboxylate], the “knock down percentage after 1 hour” value is “more than 50%” and the “mortality after 24 hours” value is listed as “more than 80%”.

As to `C#CC(OC(=O)C1C(C)(C)C1(C)C)C(C)=Cc1ccccc1` (stereo not drawn) [Compound 39, α-Ethynyl-β-methylcinnamyl 2,2,3,3-tetramethyl-cyclopropanecarboxylate], the “knock down percentage after 1 hour” value is reported as “more than 50%” and the “mortality after 24 hours” value is listed as “more than 80%”. As for `C#CC(OC(=O)C1C(C=C2CCCC2)C1(C)C)C(C)=Cc1ccccc1` (stereo not shown) [Compound 40], the “knock down percentage after 1 hour” value was “more than 50%” and the “mortality after 24 hours” value is reported as “more than 80%”. With `C#CC(OC(=O)C1(C)C(C=C2CCCC2)C1(C)C)C(C)=Cc1ccccc1C` (stereo not drawn) [Compound 55, α-Ethynyl-β-methyl-2-methyl-cinnamyl 1',2',2'-trimethyl-3'-cyclopentylidenemethyl-cyclopropanecarboxylate], the “knock down percentage after 1 hour” value was “more than 50%” and the “mortality after 24 hours” value is given as “more than 80%”. For `C#CC(OC(=O)C1C(C)(C)C1(C)C)C(=Cc1ccccc1)C(C)C` (stereo not drawn) [Compound 48, α-Ethynyl-β-isopropylcinnamyl 2,2,3,3-tetramethylcyclopropane-carboxylate], in that order: “more than 50%” and “more than 80%”. As for `C#CC(OC(=O)C1C(C)C1(C)C)C(=Cc1ccc(OCC)cc1)CC` (stereo not drawn) [Compound 42, α-Ethynyl-β-ethyl-4-ethoxy-cinnamyl 2',2',3'-trimethyl-cyclopropanecarboxylate], the “knock down percentage after 1 hour” value is on record as “more than 50%” and the “mortality after 24 hours” value is on record as “more than 80%”.
